Consider 16 compounds from patent US7786129B2, “Piperazine derivatives of dialkyl oxindoles” (Egis Gyogyszergyar Nyrt, priority 2004, dated 2010).

One data set addresses T1, 5-HT2C receptor (Sus scrofa, UniProt K7GSR7).
T1 construct: from tissue; host or cells: pig choroid plexus membrane preparation
T1 sequence (K7GSR7 1-457): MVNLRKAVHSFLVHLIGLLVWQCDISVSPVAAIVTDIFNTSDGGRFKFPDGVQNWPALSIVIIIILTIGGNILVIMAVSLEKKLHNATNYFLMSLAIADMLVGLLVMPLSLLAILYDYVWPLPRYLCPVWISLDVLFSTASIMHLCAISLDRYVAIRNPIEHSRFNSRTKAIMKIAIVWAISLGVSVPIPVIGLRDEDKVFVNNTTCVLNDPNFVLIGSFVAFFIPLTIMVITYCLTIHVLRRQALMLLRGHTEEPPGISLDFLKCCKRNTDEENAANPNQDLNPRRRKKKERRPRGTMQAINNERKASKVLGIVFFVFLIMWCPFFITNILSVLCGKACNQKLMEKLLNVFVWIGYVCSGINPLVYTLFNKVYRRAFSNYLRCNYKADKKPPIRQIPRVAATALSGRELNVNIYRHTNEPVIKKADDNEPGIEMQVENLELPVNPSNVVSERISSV
The data set can be described thus: 5-HT2C receptor binding. Also on record: species or system pig. To be noted: choroid plexus of pigs, ligand 3H-mesulergin 1.0 nM. The procedure: (§1) Receptor bindings—with the exception of the 5-HT2C receptor binding—were determined by using cerebral region preparations of male Wistar rats weighing 120-200 g. For the preparation of 5-HT1A receptor binding frontal cortex preparations were used. The al receptor binding studies were performed from isolated frontal cortex pre-parations. For the 5-HT2C receptor binding experiments choroid plexus of pigs was used. The protein contents of membrane preparations were determined by the method of Lowry (1951).
(§2) In the course of 5-HT2C and α1 receptor binding experiments the ligands were ^3H-mesulergin (1.0 nM) and ^3H-prazosine (0.3 nM), respectively. The non-specifically binding ligands were mianserine (1 μM and prazosine (1 μM), respectively.
(§3) The IC50 value is the value of concentration where the difference between total and non-specific binding is 50% in the presence of a determined concentration of a specific ligand.

The next data set addresses T2, 5-HT1A receptor (Rattus norvegicus, UniProt P19327).
T2 construct: from tissue; host or cells: rat frontal cortex membrane preparation
T2 sequence (P19327 1-422): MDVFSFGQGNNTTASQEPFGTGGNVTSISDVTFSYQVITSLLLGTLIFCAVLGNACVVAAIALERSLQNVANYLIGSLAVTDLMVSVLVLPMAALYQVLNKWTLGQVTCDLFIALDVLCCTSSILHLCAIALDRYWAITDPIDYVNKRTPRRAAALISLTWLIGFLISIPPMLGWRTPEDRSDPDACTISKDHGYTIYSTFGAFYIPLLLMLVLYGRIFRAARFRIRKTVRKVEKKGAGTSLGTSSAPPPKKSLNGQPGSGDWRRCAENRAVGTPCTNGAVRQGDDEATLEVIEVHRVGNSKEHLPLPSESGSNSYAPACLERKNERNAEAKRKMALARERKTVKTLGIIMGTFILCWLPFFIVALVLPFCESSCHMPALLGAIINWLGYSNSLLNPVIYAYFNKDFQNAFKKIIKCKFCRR
As to the kind of experiment: 5-HT1A receptor binding. To be noted: rat frontal cortex preparation, ligand tritiated 8-OH-DPAT. The procedure:
as §1
5-HT1A receptor binding was measured according to the method of Peroutka (Peroutka, S. J.: J. Neurochem. 47, p. 529 (1986)). The ligand was tritiated 8-hydroxy-N,N-dipropyl-2-aminotetraline (8-OH-DPAT). For the determination of non-specific binding 10 μM serotonin was applied. Incubation […] volume was 250 μl. Incubation was carried out at a temperature of 25 C for 30 minutes. The reaction was terminated by the addition of 9 ml of ice-cold 50 mM TRIS-HCl (pH 7.7) buffer and quick vacuum filtration using Whatman GFIB fibreglass filtering paper. Radioactivity of the filter boards was measured by liquid scintillation spectrometry.
as §3

For the next data set, the target named is α1 receptor. The data set can be described thus: α1 receptor binding experiment. As to conditions: rat isolated frontal cortex preparation, ligand 3H-prazosine 0.3 nM. How it is done: as §1, §2, §3
In a further data set the test system is Male Mongolian gerbils. The data set can be described thus: Neuroprotective effect in global ischemia test (bilateral carotid occlusion). Format: in vivo, Mongolian gerbil. As to conditions: gerbil. How it is done:
Male Mongolian gerbils weighing 60-90 g were used as test animals. The test compounds were administered intraperitoneally at a dose of 30 mg/kg 45 min after surgery. Test substances were suspended in 0.4% methylcellulose solution. In diethylether narcosis, the right and left common carotid arteries were exposed through an anterior midline cervical incision and isolated from the vagus nerves and the surrounding tissues. Full arrest of carotid blood flow was achieved by tightening an aneurysm clip for 3 min. During surgery the body temperature of the animals was kept at the individual preoperative level (37.5±0.5° C.) with the help of a heating pad and a heating lamp.
4 days after the surgery the animals were anaesthetized with 60 mg/kg i.p nembutal (10 ml/kg) and perfused through the heart first with saline then with a fixative solution containing 0.1% glutaraldehyde, 4% paraformaldehyde and 0.2% picric acid in 0.1 M phosphate buffer (pH 7.4) for 30 min. The brain was removed from the skull and post fixed for at least 1 week at 4° C. in the same fixative solution.
Alternate coronal sections of 60 μm thickness were cut from different levels of the dorsal hippocampus by a microtome. The sections were repeatedly washed in 0.1 M phosphate buffer (pH 7.4) and stained by silver impregnation. The sections were stored twice in a preparatory solution (2% sodium hydroxide and 0.875% ammonium hydroxide solution) for 5 minutes, impregnated for 10 minutes in 0.875% ammonium hydroxide and 0.5% silver nitrate solution) and placed into a washing solution (0.5% sodium carbonate and 0.01% ammonium nitrate dissolved in a 29.1% aqueous ethanol solution) twice for 2 minutes and once for one minute. The slices were then developed in 9.9% ethanol solution containing 1.5% formaldehyde and 0.01% ammonium nitrate and fixed three times for 3 minutes in a 0.5% acetic acid solution. The stained slices were placed in 0.1M phosphate buffer (pH 7.4) and chrome gelatine, applied on plates, dehydrated and treated with xylol. The cover plates were fixed with DPX glue (Fluka).
The sections were examined under light microscopy and the overall neuronal damage in the hippocampal CA1 subfield in both hippocampi was scored on a 6-point scale: (O) undamaged, (1)—0-10%; (2)—10-30%; (3)—30-50%; (4)—50-70%; (5)—70-90%; (6)—90-100% cell loss. Group differences between drug-treated and vehicle-treated groups were statistically analysed by Mann-Whitney U-test.

A further data set has as its system Male Wistar rats. The data set can be described thus: Vogel's drinking conflict test. The data set is classed as in vivo. As to conditions: ip, 0.5 h, rat, i.p. 30 min prior to test, increase in tolerated shocks, read-out: MED. How it is done:
The anxiolytic effect of the compounds according to the invention was investigated on rats according to Vogel's drinking conflict test and elevated plus-maze test (S. Pelow, P. Chopin, S. E. File, J. Briley: Neurosci. Methods 14, p. 149 (1985)).
Male Wistar rats weighing 160-180 g were used for the experiment. The animals were deprived of drinking water for 48 hours and fasted for 24 hours prior to test. The test compounds or vehicle were administered intraperitoneally, 30 min prior to test. […] Following every 20 licks electric shocks (0.7 mA) were applied through the drinking spout during the 5 min test period. The number of punished licks were recorded. The effect of the test compounds was expressed as % increase in numbers of tolerated shocks. Minimal effective doses (MED) were determined for each compound.

Structures can show the parent of a compound that is named as a salt. Marks after values point to notes of the source that are not given here.

As usually defined, the IC50 is the concentration at which inhibition is half-maximal. Low values mean greater potency in that assay, high ones weaker potency in that assay. Broadly, the melting point is the temperature, or range, at which the solid turns liquid.

In turn, `CCC1(CCCN2CCN(c3cccc(Cl)c3)CC2)C(=O)Nc2ccc(Cl)cc21` (centres unmarked) [Example 57, 5-Chloro-3-{3-[4-(3-chlorophenyl)-piperazin-1-yl]-propyl}-3-ethyl-1,3-dihydro-2H-indol-2-one] displayed a melting point of 117 to 119 °C. On 5-HT2C receptor, this compound came in with an IC50 below 0.05 µM.

In turn, `CCC1(CCCCN2CCN(c3ccc(Cl)c(C(F)(F)F)c3)CC2)C(=O)Nc2ccccc21` (centres unmarked) [Example 96, 3-{4-[4-(4-Chloro-3-trifluoromethyl-phenyl)-piperazin-1-yl]-butyl}-3-ethyl-1,3-dihydro-2H-indol-2-one monohydrochloride] came in with an IC50 at 5-HT1A receptor above 0.4 µM.

`CCC1(CCCCN2CCN(c3cccc4c3OCCO4)CC2)C(=O)Nc2ccccc21` (centres unmarked) [Example 63, 3-{4-[4-(2,3-Dihydrobenzo[1,4]dioxin-5-yl)-piperazin-1-yl]-butyl}-3-ethyl-1,3-dihydro-2H-indol-2-one] showed a melting point of 169 to 170 °C. The IC50 at α1 receptor is below 0.05 µM.

Consider `CCC1(CCCCN2CCN(c3cccc(Cl)c3)CC2)C(=O)Nc2cc(F)c(Cl)cc21` (centres unmarked) [Example 89, 5-Chloro-3-{4-[4-(3-chlorophenyl)-piperazin-1-yl]-butyl}-3-ethyl-6-fluoro-1,3-dihydro-2H-indol-2-one monohydrochloride], for which the half-inhibitory concentration (IC50) at 5-HT1A receptor is above 0.3 µM.

In turn, `CCC1(CCCCN2CCN(c3ccc(Cl)cc3)CC2)C(=O)Nc2ccc(F)cc21` (centres unmarked) [Example 90, 3-{4-[4-(4-Chlorophenyl)-piperazin-1-yl]-butyl}-3-ethyl-5-fluoro-1,3-dihydro-2H-indol-2-one] registered a melting point of 148 to 150 °C. Further, the “Effect (%)” value in the data set with Male Mongolian gerbils (change of CA1 cell loss score vs. control, 30 mg/kg i.p.) was −38%. The “CA1 cell loss (score)” value in the data set with Male Mongolian gerbils (30 mg/kg i.p. 45 min after surgery, scored 4 days after surgery on 6-point scale) is 2.73* score. Moreover, at 5-HT1A receptor, the IC50 is above 0.3 µM.

Regarding `CCC1(CCCCN2CCN(c3ccccc3OC)CC2)C(=O)Nc2ccccc21` (centres unmarked) [Example 69, 3-Ethyl-3-{4-[4-(2-methoxyphenyl)-piperazin-1-yl]-butyl}-1,3-dihydro-2H-indol-2-one monooxalate], the minimal effective dose with Male Wistar rats was 10 mg/kg.

With `CCC1(CCCCN2CCN(c3ccccn3)CC2)C(=O)Nc2ccc(Br)cc21` (centres unmarked) [Example 59, 5-Bromo-3-ethyl-3-[4-(4-pyridin-2-yl-piperazin-1-yl)-butyl]-1,3-dihydro-2H-indol-2-one], the melting point was in the range of 114 to 115 °C. Further, the concentration for half-maximal inhibition (IC50) at α1 receptor is below 0.1 µM.

For `CCC1(CCCCN2CCN(c3cccc(Cl)c3)CC2)C(=O)Nc2ccc(S(N)(=O)=O)cc21` (centres unmarked) [Example 72, 3-{4-[4-(3-Chlorophenyl)-piperazin-1-yl]-butyl}-3-ethyl-1,3-dihydro-2H-indol-2-one 5-sulfonamide monooxalate], the IC50 on 5-HT2C receptor was below 0.1 µM; on 5-HT1A receptor it was above 0.2 µM.

`CC(C)CC1(CCCCN2CCN(c3ccccn3)CC2)C(=O)Nc2ccccc21` (centres unmarked) [Example 62, 3-Isobutyl-3-[4-(4-pyridin-2-yl-piperazin-1-yl)-butyl]-1,3-dihydro-2H-indol-2-one] came in with a melting point of 158 to 159 °C. On α1 receptor, this compound displayed an IC50 below 0.1 µM.

`CC(C)CC1(CCCCN2CCN(c3cccc(Cl)c3)CC2)C(=O)Nc2ccccc21` (centres unmarked) [Example 75, 3-{4-[4-(3-Chlorophenyl)-piperazin-1-yl]-butyl}-3-isobutyl-1,3-dihydro-2H-indol-2-one monohydrochloride]: in the data set with Male Wistar rats, the minimal effective dose worked out at 10 mg/kg. The compound further yielded an IC50 at 5-HT1A receptor above 0.2 µM.

As for `CCC1(CCCCN2CCN(c3ccccn3)CC2)C(=O)Nc2ccccc21` (centres unmarked) [Example 71, 3-Ethyl-3-[4-(4-pyridin-2-yl-piperazin-1-yl)-butyl]-1,3-dihydro-2H-indol-2-one], the minimal effective dose with Male Wistar rats came to 20 mg/kg.

Regarding `CC(C)CC1(CCCCN2CCN(c3cccc4c3OCCO4)CC2)C(=O)Nc2ccccc21` (centres unmarked) [Example 64, 3-{4-[4-(2,3-Dihydrobenzo[1,4]dioxin-5-yl)-piperazin-1-yl]-butyl}-3-isobutyl-1,3-dihydro-2H-indol-2-one], the melting point was in the range of 152 to 154 °C. The IC50 on α1 receptor was below 0.05 µM.

`CCC1(CCCCN2CCN(c3ccc(Cl)cc3)CC2)C(=O)Nc2cc(F)ccc21` (centres unmarked) [Example 86, 3-{4-[4-(4-Chlorophenyl)-piperazin-1-yl]-butyl}-3-ethyl-6-fluoro-1,3-dihydro-2H-indol-2-one]: the melting point fell in the range of 145 to 147 °C. For the same compound, the half-maximal inhibitory concentration (IC50) on 5-HT1A receptor is above 0.3 µM.

`CCC1(CCCCN2CCN(c3cccc(Cl)c3)CC2)C(=O)Nc2c(Cl)cc(Cl)cc21` (centres unmarked) [Example 79, 5,7-Dichloro-3-[4-[4-(3-chlorophenyl)-piperazin-1-yl]-butyl]-3-ethyl-1,3-dihydro-2H-indol-2-one] had a melting point of 182 to 183 °C. Further, on 5-HT1A receptor, the 50% inhibitory concentration (IC50) is above 0.4 µM.

The compound `CCC1(CCCCN2CCN(c3cccc(Cl)c3)CC2)C(=O)Nc2ccccc21` (centres unmarked) [Example 60, 3-{4-[4-(3-Chlorophenyl)-piperazin-1-yl]-butyl}-3-ethyl-1,3-dihydro-2H-indol-2-one-H2O—HCl-isopropanol (1:1:1:1)] registered an IC50 at α1 receptor below 0.1 µM.

Regarding `CCC1(CCCCN2CCN(c3cccc(Cl)c3)CC2)C(=O)Nc2ccc(Br)cc21` (centres unmarked) [Example 61, 5-Bromo-3-{4-[4-(3-chlorophenyl)-piperazin-1-yl]-butyl}-3-ethyl-1,3-dihydro-2H-indol-2-one monooxalate], the results for the 50% inhibitory concentration (IC50) at 5-HT2C receptor and at 5-HT1A receptor were below 0.1 µM and above 0.2 µM, respectively.
